{
  "source": "paper PMC8403366",
  "about": "“Functional significance of gain-of-function H19 lncRNA in skeletal muscle differentiation and anti-obesity effects” (Genome Medicine, 2021)",
  "key": {"[1]": {"test_system": "C57BL/6 J mice", "test": "Liver Oil Red O / H&E staining and WAT adipocyte size", "type": "in vivo, mouse", "description": "H&E staining was performed in paraffin-embedded livers to visualize the pattern of lipid accumulation and inflammatory status. Lipid droplet accumulation in the liver was visualized using Oil Red O (O0625, Sigma) staining of frozen liver sections prepared in an optimum cutting temperature (O.C.T.) compound (4585, Fisher Scientific). Histopathology images were acquired with a light microscope (Olympus). Adipocyte size (from WAT) was determined with ImageJ software. Sections from five animals per group were used and at least 500 adipocytes per animal were measured from multiple fields."}, "[2]": {"test_system": "C57BL/6 J mice", "test": "Blood analyses (serum lipids, hormones, ALT, AST)", "quoted_text": "Whole blood was collected by tail bleeding from un-anesthetized mice or cardiac puncture from mice under deep terminal anesthesia. Mice have been fasted for 4–6 h before blood collection. Total cholesterol (TC) and triglycerides (TG) were determined by enzymatic assays using commercial kits (BioAssay Systems). Alanine aminotransferase (ALT) and aspartate aminotransferase (AST) levels were measured using Alanine Transaminase Colorimetric Activity Assay Kit (700260, Cayman Chemical) and EnzyChrom Aspartate Transaminase Assay Kit (EASTR-100, BioAssay Systems). Serum levels of leptin (ELM-Leptin-1, RayBiotech), IGF1 (RAB0229, Sigma), IGF2 (RAB0231, Sigma), insulin (90080, Crystal Chem), and testosterone (KGE010, R&D) were measured by ELISA assay according to the manufacturer’s instructions."}, "[3]": {"test_system": "C57BL/6 J mice", "test": "Run-to-exhaustion and sprint treadmill tests", "type": "in vivo, mouse", "description": "Exhaustion treadmill running and sprint running were used to evaluate the physiological activity of the mice. The mice were repeatedly exercised twice weekly for 2 weeks using a treadmill (Ugo Basile, 57631, Stoelting). For the animal exercise, mice were placed on the horizontal treadmill starting at 5 m/min and kept on for about 10 min. The speed was then increased to 10 m/min for the remaining 30 min. Treadmill training was […] and followed a standardized protocol. When performing the speed test, the mice were placed on a treadmill with a 15° incline. We increased the speed from 6 m/min to 26 m/min at increments of 2 m/min, which each increment lasting 2 min. Mice were considered to have reached the point of exhaustion when they made contact with the grid for a period of time greater than 5 s. The running speed of the mice was recorded and the animals were returned to their cages once exhausted. For the sprint test: the sprint regimen consisted of mice warming up for 3 min at 6 m/min on a 0° incline, followed by a 2 min run at the same speed with a 15° incline. Subsequent runs were performed at a 15° incline. Speed was first increased to 14 m/min for 30 s, followed by 1.5 min of low speed running at 6 m/min. The speed was then increased to 18 m/min for 30 s. Afterwards, we increased the speed from 18 m/min to 24 m/min at 2 m/min increments, with each increment lasting 15 s […]. After that, the mice continued interval running at 6 m/min for 3 min, followed by an increase in the speed from 20 m/min to 32 m/min at 4 m/min increments, with each increment lasting 15 s. This pattern of exercise continued with subsequent intervals running at 6 m/min for 3 min, followed by a sharp increase in speed from 22 m/min to 34 m/min at 4 […], with each increment lasting 15 s. This pattern was repeated with increasing speed until the mice could no longer keep up and gave up on the grid."}, "[4]": {"test_system": "iPSC-SkMC", "test": "Utrophin immunofluorescence in iPSC-SkMC", "type": "cell-based, human", "settings": "vs AGR-Scr, n = 5", "description": "For myogenic differentiation, iPSCs were differentiated into skeletal muscle cells using Skeletal Muscle Differentiation Kit (Genea Biocells) according to the manufacturer’s protocol. Briefly, iPSCs were plated onto a collagen I coated plate and maintained for 6–10 days in Skeletal Muscle Induction Medium (Genea Biocells) until confluent. Dissociated myogenic precursors were then plated on a collagen I coated plate and cultured in Skeletal Myoblast Medium (Genea Biocells) for 6–8 days. When confluent, cells were maintained in Myotube Medium or Myotube Fusion Medium (Genea Biocells). Cryopreserved stocks of myoblasts Genea002 were obtained from Genea Biocells. […]\nSkeletal muscles were collected and fixed in 10% Neutral Buffered Formalin at 4 °C for 1 h, followed by 10% sucrose/PBS overnight and then 18% sucrose/PBS overnight at 4 °C before being frozen embedded and sectioned. […] Muscle cross-sectional area and fiber numbers were quantified by ImageJ. […] The quantification of IF staining density was performed by Image-pro plus 6.0 (Media Cybernetics) and calculated based on the average staining intensity and the percentage of positively stained cells. To quantify myotube fusion, fusion index was calculated by dividing the number of nuclei in MHC-positive myotubes with ≥ 3 nuclei by the total number of nuclei analyzed in a field."}, "[5]": {"test_system": "Lep^Ob/Ob mice", "test": "Leptin deficiency-induced obesity model", "type": "in vivo, mouse", "description": "The mice used in this study were purchased from Jackson Lab as follows: Lep^Ob/Ob (stock 000632), C57BL/6 J (stock 000664). All animals were from a C57BL/6 J background and housed with a 12 h light/12 h dark cycle in the animal facility with free access to water and food. 4 to 10 mice were used in each group. Exact numbers for each experiment are included in the figure legends.\nTo determine the effects of H19-Rgof with a skeletal muscle enrichment peptide agrin (AGR-H19-Rgof) on WT C57BL/6 J or Lep^Ob/Ob mice, AGR-tagged oligonucleotides were used. The synthesis and sequence information of AGR-tagged RNA oligonucleotides are described in “Synthesis of H19-Rgof mimics, AGR-H19-Rgof mimics, and Pharmacokinetics (PK) studies.” AGR-Scr (conjugated to scramble oligonucleotides), H19-Rgof, or AGR-H19-Rgof mimics were injected at a dose of 1 mg/kg intraperitoneally into 3-week-old male and female mice. For AGR-H19-Rgof treatment in HFD (Cat # D12492, Research Diets, Inc.)-fed mice, male C57BL/6 J mice were fed with a HFD starting at 6 weeks of age. The AGR-H19-Rgof and AGR-Scr mimics were injected at a dose of 0.5 or 1 mg/kg intraperitoneally every other day starting 2 weeks after the initiation of HFD feeding. Body weight was measured weekly. The general health condition, grooming, and behavior of all animals were monitored daily, and injection sites were checked for signs of redness or edema.\nUnless otherwise indicated, mice were fasted for 4–6 h, anesthetized with isoflurane, and sacrificed by heart puncture. Tissues were dissected, weighed, and either dipped in liquid nitrogen or fixed for immunohistochemistry analysis. Individual muscle was dissected on one side of the body and weighed. […]\nH&E staining was performed in paraffin-embedded livers to visualize the pattern of lipid accumulation and inflammatory status. […] Adipocyte size (from WAT) was determined with ImageJ software. Sections from five animals per group were used and at least 500 adipocytes per animal were measured from multiple fields."}, "[6]": {"settings": "HFD-fed mice, vs AGR-Scr, n = 5"}},
  "data": [
    {"substance": "N-terminal-ELTNEIPAELTNEIPA-Linker-5'-[2’-F-C][2’-F-U][2’-F-C][2’-F-U][2’-F-U][2’-F-U][2’-F-A][2’-F-U][2’-F-U][2’-F-U][2’-F-C][2’-F-U][2’-F-G][2’-F-A][2’-F-G][2’-F-C][2’-F-U][2’-F-U][2’-F-U][2’-F-C][2’-F-C][2’-F-U][2’-F-A][2’-F-U][2’-F-C][2’-F-U][2’-F-U][2’-F-U][2’-F-C][2’-F-C]-3' [AGR-H19-Rgof]", "values": [
      {"measurement": "fatty acid deposition in the liver and WAT", "setting": "[1]; HFD-fed mice, H&E and Oil Red O, liver weight", "result": "significantly reduced"},
      {"measurement": "adipocyte size in WAT", "setting": "[1]; WT male mice on chow, H&E, vs AGR-Scr, n = 5", "result": "reduced"},
      {"measurement": "fatty acid accumulation in the liver", "setting": "[1]; WT male mice on chow, Oil Red O, vs AGR-Scr, n = 8", "result": "reduced"},
      {"measurement": "serum triglyceride concentrations", "setting": "[2]; HFD-fed male mice, n = 10, 7", "result": "reduced"},
      {"measurement": "IGF1 concentration", "setting": "[2]; HFD-fed male mice, serum", "result": "unaltered"},
      {"measurement": "IGF2 concentration", "setting": "[2]; HFD-fed male mice, serum", "result": "unaltered"},
      {"measurement": "total cholesterol", "setting": "[2]; HFD-fed mice, n = 10, 9", "result": "reduced"},
      {"measurement": "leptin", "setting": "[2]; HFD-fed mice, serum, n = 7, 7", "result": "reduced"},
      {"measurement": "total cholesterol", "setting": "[2]; WT mice on chow, serum, vs AGR-Scr, n = 5", "result": "reduced"},
      {"measurement": "serum triglyceride concentrations", "setting": "[2]; WT mice on chow, vs AGR-Scr, n = 7", "result": "reduced"},
      {"measurement": "running speed", "setting": "[3]; [6]", "result": "elevated"},
      {"measurement": "total running time", "setting": "[3]; [6]", "result": "elevated"},
      {"measurement": "running speed, treadmill exhaustion test", "setting": "[3]; WT male and female mice, vs Scr-treated controls, n = 15", "result": "increased speed"},
      {"measurement": "maximum running speed, sprint interval treadmill", "setting": "[3]; WT male and female mice, vs control, n = 10", "result": "elevated"},
      {"measurement": "utrophin protein status", "setting": "[4]", "result": "elevated"},
      {"measurement": "fatty acid deposition in livers", "setting": "[5]; Lep^ob/ob mice, Oil Red O, n = 8, 8", "result": "significantly improved"},
      {"measurement": "muscle mass", "setting": "[5]; Lep^ob/ob mice, vs AGR-Scr, n = 10, 9", "result": "increased"},
      {"measurement": "body weight", "setting": "[5]; male Lep^ob/ob mice, 8 weeks post-treatment, vs AGR-Scr, n = 10, 9", "result": "reduced"}
    ]}
  ]
}
